Measured values: US9254341B2, “Methods of manufacture of pteroyl-amino acid-fluorescent dyes” (On Target Laboratories, LLC, priority 2013, dated 2016)
pKd: −log10 of the molar value. Entries after “also recorded” stand apart in the source; their conditions may differ. One block for each molecule: values may come before it.

How the values were obtained:
[1] = tested on: ovarian cancer malignant lesions; settings: human ovarian cancer patients, intra-operative; cited from earlier work
[2] = tested on: A549 tumor xenografts (folate receptor negative); assay: Whole body imaging and biodistribution in mice bearing folate receptor-negative tumor xenografts; assay type: in vivo
Description: (§1) A549 cells (a alveolar basal epithelial carcinoma cell line) were obtained from American type culture collection (Rockville, Md.) and grown as a monolayer using 1640 RPMI medium containing (Gibco, N.Y.) 10% heat-inactivated fetal bovine serum (Atlanta Biological, Ga.) and 1% penicillin streptomycin (Gibco, N.Y.) in a 5% carbon dioxide: 95% air-humidified atmosphere at 37° C. for at least six passages before they were used for the assays.
Athymic female nude (nu/nu) mice (6 weeks old, 18-20 g) were purchased from Harlan Laboratories (Indianapolis, Ind.) and maintained on normal diet (Teklad, Wis.). Animals were housed 5/cage in a barrier, pathogen-free cloaked rack. Autoclaved tap water and food were given as needed. The animals were housed in a sterile environment on a standard 12 hours light-dark cycle for the duration of the study. Mice were identified individually by ear punch. All animal procedures were approved by Purdue Animal Care and Use Committee. Animal care and studies were performed according to national and international guidelines for the humane treatment of animals.
Seven-week-old female nu/nu mice were inoculated subcutaneously with A549 cells (1.0×10^6/mouse in RPMI 1640 medium) on the shoulder. Growth of the tumors was measured in perpendicular directions every 2 days using a caliper (body weights were monitored on the same schedule), and the volumes of the tumors were calculated as 0.5×L×W^2(L=longest axis and W=axis perpendicular to L in millimeters). Once tumors reached between 400 and 500 mm^3 in volume, animals (6 mice/group) were intravenously injected with 10 nmol of OTL-0038 in phosphate buffered saline (100 μL). After 2.5 h, animals were sacrificed by CO2 asphyxiation. Whole body imaging (intact tumor) experiments were then performed using a Caliper IVIS Lumina II Imaging Station with Living Image 4.0 software (PerkinElmer Inc, Mass.). Settings for imaging:-lamp level: medium; excitation: 745 nm; emission: ICG (indocyanine green); epi illumination; binning: 4 (M), FOV=12.5; f-stop=2; acquisition time=1 s.
Following whole body imaging, animals were dissected and selected tissues (heart, lung, liver, spleen, kidneys, stomach, small intestine, large intestine, muscle, skin, tumor) were analyzed for fluorescence activity using IVIS imager as before. Settings for imaging:-lamp level: medium; excitation: 745 nm; emission: ICG; epi illumination; binning: 4 (M), FOV=12.5; f-stop=2; acquisition time=1 s.

[3] = tested on: KB tumor xenografts (folate receptor positive); assay: Whole body imaging and tissue biodistribution in mice bearing folate receptor-positive tumor xenografts; assay type: in vivo; settings: nude mice, KB tumors, 10 nmol intravenously, 2.5 hours
Description: as §1, with “KB” for “A549”, “human nasopharyngeal” for “alveolar basal epithelial carcinoma”, “using folate free” for “using”
(§2) Athymic female nude (nu/nu) mice (5 weeks old, 18-20 g) were purchased from Harlan Laboratories (Indianapolis, Ind.) and maintained on gamma-irradiated folate-deficient special diet (Teklad, Wis.) for at least 2 weeks before the start of the study. […]
(§3) Seven-week-old female nu/nu mice were inoculated subcutaneously with KB cells (1.0×10^6/mouse in folate free RPMI 1640 medium) on the shoulder. Growth of the tumors was measured in perpendicular directions every 2 days using a caliper (body weights were monitored on the same schedule), and the volumes of the tumors were calculated as 0.5×L×W^2 (L=longest axis and W=axis perpendicular to L in millimeters). […]
(§4) Following whole body imaging, animals were dissected and selected tissues (heart, lung, liver, spleen, kidneys, stomach, small intestine, large intestine, muscle, skin, tumor) were analyzed for fluorescence activity using IVIS imager as before. […]

[4] = molecular target: T1, folate receptors (Homo sapiens, UniProt P15328); assay: Competitive binding with [3H] folic acid on KB cells that overexpress FR-alpha; settings: for pKd: read-out: dissociation constant (Kd); for Relative binding affinity: relative affinity of folic acid=1, molar ratio required to displace 50% of [3H] folic acid
T1 construct: KB cells that overexpress FR-α were seeded in 24-well (100,000 cells/well) Falcon plates; endogenous in cells; host or cells: KB cells (ATCC), grown in folate-free RPMI 1640
Description: as §1, with “KB” for “A549”, “human nasopharyngeal” for “alveolar basal epithelial carcinoma”, “using folate free” for “using”
KB cells that overexpress FR-α were seeded in 24-well (100,000 cells/well) Falcon plates (BD Biosciences, Calif.) and allowed to form monolayers over a period of 12 hours. […] After incubating for 1 hour at 37° C., cells were rinsed with PBS (3×0.5 mL, Gibco, N.Y.) to remove any unbound radioactive materials. After adding 0.25 M sodium hydroxide (0.5 mL) and incubating for 12 hours at 4° C., cells were transferred into individual scintillation vials containing Ecolite scintillation cocktail (3.0 mL, MP Biomedicals, Ohio) and counted in a liquid scintillation analyzer (Packard). The relative binding affinities were calculated using a plot of % cell bound radioactivity versus the log concentration of the test article using GraphPad Prism 4.

[5] = Stability of OTL-0038 liquid, achiral HPLC; assay type: physicochemical; settings: for Achiral HPLC: Liquid 5 mg per ml, 2 ml fill, PBS, 1 month; for stability of the liquid: 5° C.
Description: (§5) Stability data of Pte-L Tyrosine-S0456 (OTL-0038):
At 40° C. the liquid lost 8.6% at 270 nm and 1% at 774 nm. At room temperature the liquid lost about 1.4% at 270 nm and 0.5% at 774 nm.

[6] = tested on: KB tumor xenografts (folate receptor positive); assay: Comparative whole body imaging and tissue biodistribution with folate derived near IR agents; assay type: in vivo; settings: nude mice, KB tumors
Description: as §1, with “KB” for “A549”, “human nasopharyngeal” for “alveolar basal epithelial carcinoma”, “using folate free” for “using”
as §2, with “nude” for “nude (nu/nu)”, “study. Animals were housed 5/cage in a barrier, pathogen-free cloaked rack.” for “study.”
as §3, with “measured In” for “measured in”, “as 0.5×L×[…]” for “as 0.5×L×W^2”
as §4

[7] = Stability of OTL-0038 lyophilized product, achiral HPLC; assay type: physicochemical; settings: for Achiral HPLC: Lyophilization 5 mg per ml, 2 ml fill, Water, 1 month; for loss of the lyophilized product: 40° C.; for stability of the lyophilized product: first month
Excerpt: as §5

T1 sequence (P15328 25-234): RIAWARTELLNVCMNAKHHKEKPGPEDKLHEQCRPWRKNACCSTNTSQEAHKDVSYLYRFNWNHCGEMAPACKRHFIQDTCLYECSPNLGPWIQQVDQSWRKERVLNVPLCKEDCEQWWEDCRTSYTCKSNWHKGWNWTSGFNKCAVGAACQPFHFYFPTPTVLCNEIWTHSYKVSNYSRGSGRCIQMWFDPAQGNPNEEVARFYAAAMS

Molecule: folate-ethelenediamine-fluorescein isothiocyanate [EC17]
- malignant lesions removed with the aid of the dye than without it [1]: ~5 ×

- competition with [3H] folic acid ([4]; KB cells): competed well
- pKd [4]: 7.98
- Relative binding affinity [4]: 0.71
- Achiral HPLC ([5]; 5, 270 nm): 95.88%
- Achiral HPLC ([5]; 5, 774 nm): 94.29%
- Achiral HPLC ([5]; 25, 270 nm): 94.43%
- Achiral HPLC ([5]; 25, 774 nm): 94.05%
- Achiral HPLC ([5]; 40, 270 nm): 87.17%
- Achiral HPLC ([5]; 40, 774 nm): 93.56%
- Achiral HPLC ([5]; −20, 270 nm): 95.80%
- Achiral HPLC ([5]; −20, 774 nm): 94.59%
- stability of the liquid ([5]; 270 nm): seems stable
- loss of the liquid ([5]; 40° C., 270 nm): 8.6%
- loss of the liquid ([5]; 40° C., 774 nm): 1%
- loss of the liquid ([5]; room temperature, 270 nm): about 1.4%
- loss of the liquid ([5]; room temperature, 774 nm): 0.5%
- Achiral HPLC ([7]; 5, 270 nm): 95.88%
- Achiral HPLC ([7]; 5, 774 nm): 94.29%
- Achiral HPLC ([7]; 25, 270 nm): 94.43%
- Achiral HPLC ([7]; 25, 774 nm): 94.05%
- Achiral HPLC ([7]; 40, 270 nm): 87.17%
- Achiral HPLC ([7]; 40, 774 nm): 93.56%
- Achiral HPLC ([7]; −20, 270 nm): 95.80%
- Achiral HPLC ([7]; −20, 774 nm): 94.59%
- loss of the lyophilized product ([7]; 270 nm): 4.5%
- loss of the lyophilized product ([7]; 774 nm): 1.1%
- stability of the lyophilized product ([7]; room temperature): stable at the first month
Molecule: CC1(C)C(=CC=C2CCCC(C=CC3=[N+](CCCCS(=O)(=O)[O-])c4ccc(S(=O)(=O)O)cc4C3(C)C)=C2Oc2ccc(C[C@H](NC(=O)c3ccc(NCc4cnc5nc(N)[nH]c(=O)c5n4)cc3)C(=O)O)cc2)N(CCCCS(=O)(=O)O)c2ccc(S(=O)(=O)O)cc21 [OTL-0038, PTE-L-Tyr-S0456]
- tumor uptake (ex vivo fluorescence) ([2]; A549 folate receptor negative tumors, 10 nmol, 2.5 h): no fluorescence was observed in folate receptor negative tumors
- in vivo specificity for folate receptor ([2]; conclusion of the folate receptor-negative tumor study): highly specific for folate receptor
- kidney uptake (ex vivo fluorescence) ([2]; folate receptor-positive kidneys, 10 nmol, 2.5 h): high kidney uptake
- Whole body imaging: accumulation of fluorescence ([2]; nude mice, A549 tumors, 10 nmol intravenously, 2.5 h): did not accumulated in the folate receptor negative tumors
- Whole body imaging: accumulation of fluorescence [3]: accumulated predominantly in the folate receptor positive tumors, with no substantial fluorescence activity in the other tissues
- Tissue biodistribution: fluorescence in dissected tissues ([3]; ex vivo IVIS): highest fluorescence intensity was observed in FR-positive tumors with no accumulation in the other tissues except the kidneys; also recorded: mainly accumulated in folate receptor positive tumor xenografts and kidneys
- stability of the liquid ([5]; 774 nm): reasonably stable with a small degradation in purity
- tumor fluorescence intensity, direct comparison ([6]; 10 nmol): brighter (higher) than the mice treated with the other folate-conjugated near IR dyes
- Whole body imaging: accumulation of fluorescence ([6]; 10 nmol intravenously, 2.5 hours): accumulated predominantly in the folate receptor positive tumors
- stability of the lyophilized product ([7]; less than room temperature): stable at less than room temperature for the first month

- pKd [4]: 7.09
- Relative binding affinity [4]: 0.09
Molecule: CC1(C)C(=CC=C2CCCC(C=CC3=[N+](CCCCS(=O)(=O)[O-])c4ccc(S(=O)(=O)O)cc4C3(C)C)=C2Oc2ccc(C[C@@H](NC(=O)c3ccc(NCc4cnc5nc(N)[nH]c(=O)c5n4)cc3)C(=O)O)cc2)N(CCCCS(=O)(=O)O)c2ccc(S(=O)(=O)O)cc21 [OTL-0039, PTE-D-Tyr-S0456]
- affinity for folate receptor, comparison in words ([4]; KB cells): lower affinity for folate receptor when compared to folic acid and OTL-0038
